Assays:
[1] = set-up: species or system mice; conditions: mouse, in vivo
Description: PTX was injected intraperitoneally on the day of induction and 48 hours later at 100 ng/0.2 ml/mouse. […] All animals were monitored daily for clinical signs from the tenth day post-EAE induction until day 30. Scoring of EAE clinical signs was recorded on observations cards according to the grading system described herein.

[2] = system: MOG-induced EAE; experiment: MOG-induced EAE mouse model of MS, clinical signs; format: in vivo, C57Bl/6 mice; conditions: for Percent Inhibition-1: inhibition according to incidence vs vehicle; for Onset (of disease): no EAE counted as 31 days; for Percent Inhibition-3: reduction of GMS vs vehicle; for Percent Inhibition-2: reduction of MMS vs vehicle; for Incidence: sick/total
[3] = system: SCH-induced EAE; experiment: SCH-induced EAE mouse model (acute), clinical signs; format: in vivo, (Balb/c×SJL) F1 (CSFL) mice; conditions: for GMS reduction / MMS reduction: vs vehicle
[4] = system: MOG-induced EAE; experiment: Histological scoring of spinal cords from MOG-induced EAE mice (inflammation, demyelination); format: in vivo, C57Bl/6 mice; conditions: 30 and 55 mg/kg twice a day and 110 mg/kg once a day; range over groups
From the text: At the end of the observation period (day 30) the mice of the treatment groups were necropsied. The mice were deeply anesthetized with isoflourane and air and transcardially perfused, initially with a flushing solution (saline with heparin) until the perfusate was bloodless and then flushed with 4% buffered formalin. The vertebral columns (from the cervical region to the lumbar region) of each of the mice were dissected. The vertebral column was isolated by cutting away as much muscle as possible and sectioned distally at the last rib. The brain and the vertebral column were preserved in 4% buffered formalin.
Two transverse sections from each cervical and lumbar intumescence (cervico-thoracic and lumbo-sacral vertebral segments) were evaluated. […] Histological sections were scored blind. Inflammation was evaluated for both gray and white matter, demyelination was evaluated within white matter only, and axonal injury was evaluated within the white matter. […] The percentage axonal loss was determined by subtracting the number of points crossing axons subtracted by the total number of points of the stereological grid, divided by the total number of points of the stereological grid.
Two transverse sections from each cervical and lumbar intumescence (cervico-thoracic and lumbo-sacral vertebral segments) were evaluated. […]

[5] = system: PLP-induced EAE; experiment: PLP-induced EAE mouse model (relapsing-remitting), clinical signs; format: in vivo, SJL/J mice; conditions: for Mortality: dead/total, to day 60; for Incidence: sick/total
[6] = target: JAK2 (Homo sapiens, UniProt O60674); conditions: statement with reference to earlier filings; cited from earlier work
Chain of JAK2 (O60674 whole entry, species assumed): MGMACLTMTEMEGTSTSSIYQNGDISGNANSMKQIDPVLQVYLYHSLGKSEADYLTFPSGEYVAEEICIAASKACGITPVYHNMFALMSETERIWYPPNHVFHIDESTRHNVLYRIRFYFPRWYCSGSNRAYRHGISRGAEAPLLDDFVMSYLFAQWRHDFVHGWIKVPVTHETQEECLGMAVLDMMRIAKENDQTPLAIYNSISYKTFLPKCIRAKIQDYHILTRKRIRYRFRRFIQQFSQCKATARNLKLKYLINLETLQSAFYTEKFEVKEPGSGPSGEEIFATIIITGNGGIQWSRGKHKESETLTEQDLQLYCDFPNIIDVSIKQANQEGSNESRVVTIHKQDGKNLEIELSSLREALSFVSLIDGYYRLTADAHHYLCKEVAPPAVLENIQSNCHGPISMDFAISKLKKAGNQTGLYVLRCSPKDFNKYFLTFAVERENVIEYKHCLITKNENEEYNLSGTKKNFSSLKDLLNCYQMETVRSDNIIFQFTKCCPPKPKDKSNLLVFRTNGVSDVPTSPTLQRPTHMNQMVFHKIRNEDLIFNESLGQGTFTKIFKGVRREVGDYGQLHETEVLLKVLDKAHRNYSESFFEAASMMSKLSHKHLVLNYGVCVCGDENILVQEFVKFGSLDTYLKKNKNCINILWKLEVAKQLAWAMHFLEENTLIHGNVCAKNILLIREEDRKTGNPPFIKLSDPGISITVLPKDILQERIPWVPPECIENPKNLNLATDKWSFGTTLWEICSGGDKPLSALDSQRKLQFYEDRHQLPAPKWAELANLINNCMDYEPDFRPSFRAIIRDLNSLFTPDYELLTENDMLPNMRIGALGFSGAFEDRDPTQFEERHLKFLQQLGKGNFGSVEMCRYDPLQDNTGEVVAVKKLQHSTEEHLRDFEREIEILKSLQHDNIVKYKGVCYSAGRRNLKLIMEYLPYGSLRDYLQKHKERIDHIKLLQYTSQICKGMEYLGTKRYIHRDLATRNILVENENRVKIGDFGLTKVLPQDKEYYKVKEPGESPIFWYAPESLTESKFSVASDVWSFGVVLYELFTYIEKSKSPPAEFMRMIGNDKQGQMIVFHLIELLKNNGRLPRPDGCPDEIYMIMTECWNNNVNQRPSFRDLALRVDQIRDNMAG

[7] = in vivo; set-up: species or system male beagle dogs; conditions: dog, po
[8] = system: PLP-induced EAE; experiment: Ex vivo blinded pathology scoring in PLP-induced EAE; set-up: species or system SJL/J mice; conditions: 100 mg/kg dose; p<0.05; data not shown
Description: Two transverse sections from each cervical and lumbar intumescence (cervico-thoracic and lumbo-sacral vertebral segments) were evaluated. Histological evaluation was performed on 4 μm thick sections stained with hematoxylin-eosin (H&E), Luxol fast blue periodic acid-Schiff (LFB/PAS) and Bielschowsky silver impregnation to assess inflammation, demyelination and axonal pathology. Histological sections were scored blind. Inflammation was evaluated for both gray and white matter, demyelination was evaluated within white matter only, and axonal injury was evaluated within the white matter. Scores from both cervico-thoracic, and lumbosacral sections, respectively, were averaged to obtain the average inflammation score and demyelination scores. The most severe area of demyelination for each section was used to evaluate axonal pathology. […] The percentage axonal loss was determined by subtracting the number of points crossing axons subtracted by the total number of points of the stereological grid, divided by the total number of points of the stereological grid.

[9] = 110 mg/kg orally once a day, vs vehicle
[10] = 110 mg/kg orally twice a day (so in the source)

With `CN1CCN(c2cccc(Nc3nc4c(-c5ccc(S(C)(=O)=O)cc5)cccn4n3)c2)CC1` [Compound A, [8-(4-methanesulfonyl-phenyl)-[1,2,4]triazolo[1,5-a]pyridin-2-yl]-[3-(4-methyl-piperazin-1-yl)-phenyl]-amine] the “exposures associated with efficacy” value [1] was 2000 to 4000 ng/mL, the “Duration (of disease)” value ([2]; 30 mg/kg orally twice a day) was 3.7 ± 6.1 days and the “GMS (group mean score)” value ([2]; 30 mg/kg orally twice a day) was 0.2±0.4. The “MMS (mean maximal score)” value ([2]; 30 mg/kg orally twice a day) was 0.7±1.0, the Mortality ([2]; 30 mg/kg orally twice a day, dead/total, to day 30) was 0/15 and the “Percent Inhibition-1” value ([2]; 30 mg/kg orally twice a day) was 53.3%. For the same compound, the “Onset (of disease)” value ([2]; 30 mg/kg orally twice a day) was 23.7 ± 8.2 days, the “Percent Inhibition-3” value ([2]; 30 mg/kg orally twice a day) was 90.5% and the “Percent Inhibition-2” value ([2]; 30 mg/kg orally twice a day) was 79.4%. For the same compound, the Incidence ([2]; 30 mg/kg orally twice a day, to day 30) was 7/15, the “reduction in clinical scores compared to vehicle (FIG. 1)” value ([2]; 30 mg/kg orally twice daily) was 90.5% and the “Duration (of disease)” value ([2]; 55 mg/kg orally twice a day) was 0.2 ± 0.8 days. For the same compound, the “GMS (group mean score)” value ([2]; 55 mg/kg orally twice a day) was 0.01±0.04, the “MMS (mean maximal score)” value ([2]; 55 mg/kg orally twice a day) was 0.1±0.3 and the Mortality ([2]; 55 mg/kg orally twice a day, dead/total, to day 30) was 0/15. For the same compound, the “Percent Inhibition-1” value ([2]; 55 mg/kg orally twice a day) was 93.3%, the “Onset (of disease)” value ([2]; 55 mg/kg orally twice a day) was 30.5 ± 2.1 days and the “Percent Inhibition-3” value ([2]; 55 mg/kg orally twice a day) was 99.5%. The “Percent Inhibition-2” value ([2]; 55 mg/kg orally twice a day) was 97.1%, the Incidence ([2]; 55 mg/kg orally twice a day, to day 30) was 1/15 and the “reduction in clinical scores compared to vehicle (FIG. 1)” value ([2]; 55 mg/kg orally twice daily) was 99.5%. The GMS reduction [2, 9] was 98.5%, the MMS reduction [2, 9] was 97.1% and the “reduction in clinical score over that of vehicle (FIG. 1)” value ([2]; 110 mg/kg orally once daily) was 98.5%. The “Duration (of disease)” value [2, 10] was 0.5 ± 2.1 days, the “GMS (group mean score)” value [2, 10] was 0.03 ± 0.1 and the “MMS (mean maximal score)” value [2, 10] was 0.1 ± 0.3. The Mortality ([2]; 110 mg/kg orally twice a day (so in the source), dead/total, to day 30) was 0/15, the “Percent Inhibition-1” value [2, 10] was 93.3% and the “Onset (of disease)” value [2, 10] was 30.5 ± 2.1 days. The “Percent Inhibition-3” value [2, 10] was 98.5%, the “Percent Inhibition-2” value [2, 10] was 97.1% and the Incidence ([2]; 110 mg/kg orally twice a day (so in the source), to day 30) was 1/15. For the same compound, the Mortality ([2]; any of the MOG-induced EAE treatment groups) was “not observed”, the “impact on clinical score over vehicle” value ([2]; once daily dosing at 10 mg/kg, 30 mg/kg and 60 mg/kg (data not shown)) was “no significant impact over vehicle” and the “Clinical score reduction compared to vehicle (FIG. 3)” value ([3]; 30 mg/kg orally twice a day) was 37.3%. The Duration (of disease) ([3]; 30 mg/kg orally twice a day) was 8.2 ± 3.3 days, the Onset (of disease) ([3]; 30 mg/kg orally twice a day) was 16.2 ± 2.0 days and the GMS reduction ([3]; 30 mg/kg orally twice a day) was 37.3%. The MMS reduction ([3]; 30 mg/kg orally twice a day) was 17.5%, the “Clinical score reduction compared to vehicle (FIG. 3)” value ([3]; 60 mg/kg orally twice a day) was 58.3% and the Duration (of disease) ([3]; 60 mg/kg orally twice a day) was 8.4 ± 4.2 days. For the same compound, the Onset (of disease) ([3]; 60 mg/kg orally twice a day) was 16.4 ± 3.0 days, the GMS reduction ([3]; 60 mg/kg orally twice a day) was 58.3% and the MMS reduction ([3]; 60 mg/kg orally twice a day) was 30%. The Mortality ([3]; range over groups treated with Compound A, vehicle 40%) was 20-80%, the “reduction of demyelination over vehicle (LFB/PAS)” value [4] was 17.3%-23.9% and the “reduction of spinal inflammation over vehicle (H&E)” value [4] was 41.6%-57.5%. The “GMS (1st and 2nd relapse)” value ([5]; 30 mg/kg orally twice a day) was 1.3 ± 0.9, the Mortality ([5]; 30 mg/kg orally twice a day) was 0/15 and the Incidence ([5]; 30 mg/kg orally twice a day) was 15/15. For the same compound, the “reduction in overall mean clinical scores compared to vehicle (FIG. 4)” value (“reduction … (FIG. 4)” below) ([5]; 30 mg/kg twice daily) was 25.9%, the “reduction in clinical score over that of vehicle” value ([5]; 60 mg/kg once daily (data not shown)) was 20.1% and the “GMS (1st and 2nd relapse)” value ([5]; 60 mg/kg orally once a day) was 1.4 ± 0.8. For the same compound, the Mortality ([5]; 60 mg/kg orally once a day) was 0/15, the Incidence ([5]; 60 mg/kg orally once a day) was 15/15 and the “GMS (1st and 2nd relapse)” value ([5]; 60 mg/kg orally twice a day) was 0.8 ± 0.4. For the same compound, the Mortality ([5]; 60 mg/kg orally twice a day) was 0/15, the Incidence ([5]; 60 mg/kg orally twice a day) was 15/15 and the “reduction … (FIG. 4)” value ([5]; 60 mg/kg twice daily) was 49.9%. The “reduction in clinical score over that of vehicle” value ([5]; 100 mg/kg once daily (data not shown)) was 54.9%, the “GMS (1st and 2nd relapse)” value ([5]; 100 mg/kg orally once a day) was 0.9 ± 0.5 and the Mortality ([5]; 100 mg/kg orally once a day) was 0/15. The Incidence ([5]; 100 mg/kg orally once a day) was 15/15, the “GMS (1st and 2nd relapse)” value ([5]; 100 mg/kg orally twice a day) was 0.3 ± 0.3 and the Mortality ([5]; 100 mg/kg orally twice a day) was 0/15. The Incidence ([5]; 100 mg/kg orally twice a day) was 10/15, the “activity in the first relapse” value ([5]; 100 mg/kg twice a day) was 97.6% and the “activity in the second relapse” value ([5]; 100 mg/kg twice a day) was 85.9%. The “reduction … (FIG. 4)” value ([5]; 100 mg/kg twice daily) was 86.1%, the “inhibition of JAK2” value [6] was “potent” and the “dose relation of Cmax and AUC” value ([7]; 30 mg/kg) was “linear, dose-related increases”. The Cmax ([7]; male, beagle, 100 mg/kg) was 1760 ng/mL and the “reduction of inflammation (H&E staining)” value [8] was “significance in the reduction of inflammation”.

Reference: patent US20160303116A1, “TREATMENT OF MULTIPLE SCLEROSIS WITH A 1,2,4-TRIAZOLO [1,5A] PYRIDINE DERIVATIVE” (CEPHALON, INC., priority 2013, published 2016)
